Source: ChEMBL document CHEMBL1137424, “Array synthesis of progesterone receptor antagonists: 3-aryl-1,2-diazepines” (Bioorg Med Chem Lett, 2006)

Legend:
[1] = biological target: T1, Progesterone receptor (Homo sapiens, UniProt P06401); test: Binding affinity at PR by fluorescence binding assay
T1 sequence (P06401 whole entry): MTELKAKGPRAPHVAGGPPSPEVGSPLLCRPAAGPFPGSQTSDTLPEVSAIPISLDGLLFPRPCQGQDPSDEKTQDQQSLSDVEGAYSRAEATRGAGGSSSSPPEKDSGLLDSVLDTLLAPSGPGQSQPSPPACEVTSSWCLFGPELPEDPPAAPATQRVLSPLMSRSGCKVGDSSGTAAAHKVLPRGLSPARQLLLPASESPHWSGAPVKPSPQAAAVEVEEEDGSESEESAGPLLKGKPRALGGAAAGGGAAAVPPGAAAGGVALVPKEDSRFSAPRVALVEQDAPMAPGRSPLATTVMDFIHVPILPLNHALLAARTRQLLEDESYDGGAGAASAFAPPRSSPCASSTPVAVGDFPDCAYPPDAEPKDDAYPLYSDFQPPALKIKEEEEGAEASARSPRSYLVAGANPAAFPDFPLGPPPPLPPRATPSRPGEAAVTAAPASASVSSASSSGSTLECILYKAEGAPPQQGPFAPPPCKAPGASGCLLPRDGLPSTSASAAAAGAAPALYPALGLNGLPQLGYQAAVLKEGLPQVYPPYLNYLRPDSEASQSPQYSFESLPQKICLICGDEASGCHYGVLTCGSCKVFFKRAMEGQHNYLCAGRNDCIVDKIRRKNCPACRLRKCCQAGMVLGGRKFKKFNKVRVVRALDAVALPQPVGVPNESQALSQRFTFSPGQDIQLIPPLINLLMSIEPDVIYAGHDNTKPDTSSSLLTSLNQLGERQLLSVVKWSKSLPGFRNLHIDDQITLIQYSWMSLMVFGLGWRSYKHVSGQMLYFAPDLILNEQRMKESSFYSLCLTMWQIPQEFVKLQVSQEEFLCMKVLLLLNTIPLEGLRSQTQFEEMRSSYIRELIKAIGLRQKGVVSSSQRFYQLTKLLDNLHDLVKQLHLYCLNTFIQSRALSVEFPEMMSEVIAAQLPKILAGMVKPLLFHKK

[2] = biological target: T1, Progesterone receptor; test: Antagonist activity against PR beta-mediated transactivation of MMTV luciferase reporter gene in BacMam transduced progesterone-stimulated CV1 cells; format: functional, cell-based, CV-1

SMILES | Ki [1] [nM] | IC50 [2] [nM]
O=S(=O)(c1ccc(Br)s1)N1CCCCC(c2ccc(Cl)c(Cl)c2)=N1 | 25.1 | 316
O=[N+]([O-])c1ccc(C2=NN(S(=O)(=O)c3ccc(OC(F)(F)F)cc3)CCCC2)cc1 | 50.1 | 158
O=S(=O)(c1ccc(Cl)cc1Cl)N1CCCCC(c2ccc(Cl)c(Cl)c2)=N1 | 50.1 | 200
O=S(=O)(c1ccc(Br)s1)N1CCCCC(c2cccc(Br)c2)=N1 | 63.1 | 251
O=S(=O)(c1ccc(Cl)s1)N1CCCCC(c2ccc(Cl)c(Cl)c2)=N1 | 39.8 | –
O=S(=O)(c1ccc(Cl)s1)N1CCCCC(c2ccccc2Cl)=N1 | 200 | 631
N#Cc1ccc(C2=NN(S(=O)(=O)c3ccc(Br)s3)CCCC2)cc1 | 63.1 | –

Other lines, results leading:

Ki [1] [nM] | IC50 [2] [nM] | SMILES
794 | 501 | O=S(=O)(c1ccc(Cl)cc1)N1CCCCC(c2cccc(F)c2)=N1
631 | 1260 | O=S(=O)(c1cccc(Cl)c1)N1CCCCC(c2ccc(Cl)cc2)=N1
316 | 2000 | Cc1c(Cl)cccc1S(=O)(=O)N1CCCCC(c2cccc(Cl)c2)=N1
1000 | 398 | N#Cc1ccc(C2=NN(S(=O)(=O)c3ccccc3F)CCCC2)cc1
